{"source": "ChEMBL document CHEMBL5696442", "about": "“Discovery of type II inhibitors of TGFβ-activated kinase 1 (TAK1) and mitogen-activated protein kinase kinase kinase kinase 2 (MAP4K2)” (J Med Chem, 2015)", "key": {"[1]": {"target": "Casein kinase I isoform delta (Homo sapiens) (UniProt P48730)", "sequence (P48730 whole entry, looked up, canonical isoform)": "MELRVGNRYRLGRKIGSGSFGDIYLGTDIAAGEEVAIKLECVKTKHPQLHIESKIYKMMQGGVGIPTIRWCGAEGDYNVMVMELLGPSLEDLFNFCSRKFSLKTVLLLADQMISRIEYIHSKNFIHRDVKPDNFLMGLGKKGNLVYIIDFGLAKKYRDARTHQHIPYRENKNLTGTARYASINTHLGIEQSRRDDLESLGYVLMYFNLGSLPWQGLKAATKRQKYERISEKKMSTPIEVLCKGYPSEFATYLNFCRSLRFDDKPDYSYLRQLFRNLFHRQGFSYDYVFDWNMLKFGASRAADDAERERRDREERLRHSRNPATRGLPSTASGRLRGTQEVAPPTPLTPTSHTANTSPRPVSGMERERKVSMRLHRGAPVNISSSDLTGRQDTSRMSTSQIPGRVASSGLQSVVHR", "experiment": "Inhibition of CK1d Lys2 labeling site in human Huh-7 cells at 1 uM by KiNativ Profiling analysis relative to control", "assay_type": "cell-based"}, "[2]": {"target": "T1, Dual specificity mitogen-activated protein kinase kinase 6 (Homo sapiens) (UniProt P52564)", "T1 sequence (whole entry)": "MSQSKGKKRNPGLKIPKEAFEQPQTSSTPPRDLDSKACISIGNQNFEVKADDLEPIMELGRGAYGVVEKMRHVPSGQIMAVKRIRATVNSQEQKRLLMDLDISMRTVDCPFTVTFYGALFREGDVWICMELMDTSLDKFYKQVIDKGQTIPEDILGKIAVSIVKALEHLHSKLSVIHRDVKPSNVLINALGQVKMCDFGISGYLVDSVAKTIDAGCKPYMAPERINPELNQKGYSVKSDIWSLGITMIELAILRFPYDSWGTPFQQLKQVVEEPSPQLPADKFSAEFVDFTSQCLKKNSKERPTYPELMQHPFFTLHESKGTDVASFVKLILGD", "experiment": "Inhibition of MAP2K6 Lys2 labeling site in human Huh-7 cell lysate at 1 uM by KiNativ Profiling analysis relative to control", "assay_type": "subcellular"}, "[3]": {"target": "T2, Serine/threonine-protein kinase tousled-like 1 (Homo sapiens) (UniProt Q9UKI8)", "T2 sequence (whole entry)": "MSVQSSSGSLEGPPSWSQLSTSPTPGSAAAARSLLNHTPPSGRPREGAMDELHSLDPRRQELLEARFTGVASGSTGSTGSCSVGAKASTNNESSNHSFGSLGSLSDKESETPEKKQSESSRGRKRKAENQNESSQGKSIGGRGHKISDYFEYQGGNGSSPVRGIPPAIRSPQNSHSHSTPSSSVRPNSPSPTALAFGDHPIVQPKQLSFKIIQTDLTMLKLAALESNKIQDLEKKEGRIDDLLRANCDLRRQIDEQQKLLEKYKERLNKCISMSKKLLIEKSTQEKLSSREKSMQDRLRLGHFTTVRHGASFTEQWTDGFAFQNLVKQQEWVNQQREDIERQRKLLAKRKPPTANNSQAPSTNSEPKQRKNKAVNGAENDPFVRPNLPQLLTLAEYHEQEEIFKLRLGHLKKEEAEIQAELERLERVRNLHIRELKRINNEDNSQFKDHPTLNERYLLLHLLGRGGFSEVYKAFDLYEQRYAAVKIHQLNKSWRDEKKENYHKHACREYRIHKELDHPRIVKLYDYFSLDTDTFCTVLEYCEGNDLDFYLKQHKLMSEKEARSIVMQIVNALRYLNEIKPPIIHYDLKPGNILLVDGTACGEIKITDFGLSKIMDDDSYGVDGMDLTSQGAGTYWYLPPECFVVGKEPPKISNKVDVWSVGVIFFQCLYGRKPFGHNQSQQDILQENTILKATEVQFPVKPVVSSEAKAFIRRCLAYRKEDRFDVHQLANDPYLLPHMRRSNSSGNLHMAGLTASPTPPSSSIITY", "experiment": "Inhibition of TLK1 Lys2 labeling site in human Huh-7 cell lysate at 1 uM by KiNativ Profiling analysis relative to control", "assay_type": "subcellular"}, "[4]": {"target": "T3, Phosphatidylinositol 5-phosphate 4-kinase type-2 alpha (Homo sapiens) (UniProt P48426)", "T3 sequence (whole entry)": "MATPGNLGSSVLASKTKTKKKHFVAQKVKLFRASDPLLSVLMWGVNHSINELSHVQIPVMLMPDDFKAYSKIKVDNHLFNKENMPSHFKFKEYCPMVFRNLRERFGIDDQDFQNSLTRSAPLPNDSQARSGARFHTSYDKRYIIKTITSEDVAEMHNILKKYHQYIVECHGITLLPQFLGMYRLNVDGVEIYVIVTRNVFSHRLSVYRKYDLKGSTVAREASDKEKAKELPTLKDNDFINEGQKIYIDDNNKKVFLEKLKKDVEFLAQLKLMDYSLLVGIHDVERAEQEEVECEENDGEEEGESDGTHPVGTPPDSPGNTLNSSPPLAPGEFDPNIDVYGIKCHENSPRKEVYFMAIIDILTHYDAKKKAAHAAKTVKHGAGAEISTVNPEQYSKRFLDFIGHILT", "experiment": "Inhibition of PIP5K2A LIP labeling site in human Huh-7 cells at 1 uM by KiNativ Profiling analysis relative to control", "assay_type": "cell-based"}, "[5]": {"target": "Epidermal growth factor receptor (Homo sapiens) (UniProt P00533)", "sequence (P00533 whole entry)": "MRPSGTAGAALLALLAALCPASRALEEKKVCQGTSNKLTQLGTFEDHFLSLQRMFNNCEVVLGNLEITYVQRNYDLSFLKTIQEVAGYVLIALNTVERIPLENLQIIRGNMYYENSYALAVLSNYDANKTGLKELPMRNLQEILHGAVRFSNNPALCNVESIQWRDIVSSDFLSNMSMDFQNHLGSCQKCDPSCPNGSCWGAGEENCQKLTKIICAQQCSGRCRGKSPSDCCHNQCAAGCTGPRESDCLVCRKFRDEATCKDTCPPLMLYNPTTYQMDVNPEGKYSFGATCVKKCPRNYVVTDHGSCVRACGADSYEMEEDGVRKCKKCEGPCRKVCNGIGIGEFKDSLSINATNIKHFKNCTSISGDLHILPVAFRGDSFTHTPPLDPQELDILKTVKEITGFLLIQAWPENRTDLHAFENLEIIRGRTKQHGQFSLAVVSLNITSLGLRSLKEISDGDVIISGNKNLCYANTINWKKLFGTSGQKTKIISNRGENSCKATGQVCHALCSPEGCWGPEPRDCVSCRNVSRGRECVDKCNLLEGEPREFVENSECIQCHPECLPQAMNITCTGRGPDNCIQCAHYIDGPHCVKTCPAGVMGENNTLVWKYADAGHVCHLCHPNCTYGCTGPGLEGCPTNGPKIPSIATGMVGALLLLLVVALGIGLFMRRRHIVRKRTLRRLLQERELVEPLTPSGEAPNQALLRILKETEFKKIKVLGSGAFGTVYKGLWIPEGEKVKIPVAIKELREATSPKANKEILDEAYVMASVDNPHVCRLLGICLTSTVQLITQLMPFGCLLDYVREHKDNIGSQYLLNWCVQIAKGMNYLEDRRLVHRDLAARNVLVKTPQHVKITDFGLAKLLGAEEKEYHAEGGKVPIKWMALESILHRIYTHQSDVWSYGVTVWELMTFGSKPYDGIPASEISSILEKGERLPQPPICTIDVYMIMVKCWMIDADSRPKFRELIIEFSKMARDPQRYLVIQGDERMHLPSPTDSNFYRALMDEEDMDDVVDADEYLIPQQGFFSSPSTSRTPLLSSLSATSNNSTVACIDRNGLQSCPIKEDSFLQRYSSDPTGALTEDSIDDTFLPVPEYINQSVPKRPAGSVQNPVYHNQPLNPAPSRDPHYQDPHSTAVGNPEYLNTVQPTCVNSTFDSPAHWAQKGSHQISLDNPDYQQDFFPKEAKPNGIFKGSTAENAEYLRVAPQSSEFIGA", "experiment": "Inhibition of EGFR Lys1 labeling site in human A-375 cells at 0.05 uM by KiNativ Profiling analysis relative to control", "assay_type": "cell-based"}, "[6]": {"target": "Calcium/calmodulin-dependent protein kinase type II subunit alpha (Homo sapiens) (UniProt Q9UQM7)", "sequence (Q9UQM7 whole entry)": "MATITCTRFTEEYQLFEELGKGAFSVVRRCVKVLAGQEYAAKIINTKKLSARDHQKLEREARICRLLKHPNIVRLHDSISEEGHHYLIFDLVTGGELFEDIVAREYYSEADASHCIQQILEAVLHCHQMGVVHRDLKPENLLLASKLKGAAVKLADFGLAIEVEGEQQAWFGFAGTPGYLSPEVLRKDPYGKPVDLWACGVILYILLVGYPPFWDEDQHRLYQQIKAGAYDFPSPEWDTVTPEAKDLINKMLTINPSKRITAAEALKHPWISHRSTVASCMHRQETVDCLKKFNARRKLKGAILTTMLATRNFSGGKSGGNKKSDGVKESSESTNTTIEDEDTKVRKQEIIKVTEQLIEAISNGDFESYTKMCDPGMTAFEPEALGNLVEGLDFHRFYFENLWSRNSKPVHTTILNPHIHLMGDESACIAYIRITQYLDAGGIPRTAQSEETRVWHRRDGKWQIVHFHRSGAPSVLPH", "experiment": "Inhibition of CAMK2a K2 labeling site in human Huh-7 cells at 1 uM by KiNativ Profiling analysis relative to control", "assay_type": "cell-based"}, "[7]": {"tested_on": "Receptor-type tyrosine-protein kinase FLT3 (Homo sapiens), P36888 [D835Y]", "experiment": "Inhibition of FLT3 D835Y mutant (unknown origin) at 10 uM by Ambit Kinomescan binding assay relative to control"}, "[8]": {"target": "Serine/threonine-protein kinase WNK4 (Homo sapiens) (UniProt Q96J92)", "experiment": "Inhibition of Wnk4 K2 labeling site in human Huh-7 cells at 10 uM by KiNativ Profiling analysis relative to control", "assay_type": "cell-based"}, "[9]": {"target": "Serine/threonine-protein kinase 33 (Homo sapiens) (UniProt Q9BYT3)", "sequence (Q9BYT3 whole entry, looked up)": "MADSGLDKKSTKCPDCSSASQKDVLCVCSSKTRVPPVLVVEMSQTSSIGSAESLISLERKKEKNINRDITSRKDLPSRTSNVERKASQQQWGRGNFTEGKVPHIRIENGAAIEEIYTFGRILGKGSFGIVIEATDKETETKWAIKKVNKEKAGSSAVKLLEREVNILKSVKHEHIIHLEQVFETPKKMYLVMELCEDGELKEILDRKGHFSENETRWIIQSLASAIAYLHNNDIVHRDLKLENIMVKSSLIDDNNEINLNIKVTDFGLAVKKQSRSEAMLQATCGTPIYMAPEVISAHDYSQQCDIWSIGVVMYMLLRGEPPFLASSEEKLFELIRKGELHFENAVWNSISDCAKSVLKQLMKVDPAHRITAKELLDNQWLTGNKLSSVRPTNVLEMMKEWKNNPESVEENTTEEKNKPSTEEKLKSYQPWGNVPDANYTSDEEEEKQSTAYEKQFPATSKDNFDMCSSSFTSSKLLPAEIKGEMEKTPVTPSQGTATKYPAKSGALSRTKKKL", "experiment": "Inhibition of STK33 (unknown origin) at 1 uM by Ambit Kinomescan binding assay relative to control"}, "[10]": {"target": "Proto-oncogene tyrosine-protein kinase Src (Homo sapiens, UniProt P12931)", "sequence (P12931 2-536 limits assumed)": "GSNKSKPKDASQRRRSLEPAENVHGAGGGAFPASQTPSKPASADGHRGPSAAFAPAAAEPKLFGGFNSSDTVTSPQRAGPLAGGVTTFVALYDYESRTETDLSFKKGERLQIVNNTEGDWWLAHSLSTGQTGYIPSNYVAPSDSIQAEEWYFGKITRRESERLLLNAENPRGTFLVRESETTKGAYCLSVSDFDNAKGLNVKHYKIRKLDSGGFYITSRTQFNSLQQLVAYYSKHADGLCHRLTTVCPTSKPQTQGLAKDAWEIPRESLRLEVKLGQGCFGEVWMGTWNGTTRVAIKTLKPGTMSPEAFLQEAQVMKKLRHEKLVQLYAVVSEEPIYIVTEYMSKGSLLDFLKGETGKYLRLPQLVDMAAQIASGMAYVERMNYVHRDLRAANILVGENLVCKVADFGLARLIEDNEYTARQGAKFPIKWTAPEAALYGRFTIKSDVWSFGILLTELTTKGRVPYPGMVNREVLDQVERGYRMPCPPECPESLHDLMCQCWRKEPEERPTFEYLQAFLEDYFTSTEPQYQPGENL", "experiment": "Inhibition of SRC ACT labeling site in human A-375 cells at 0.05 uM by KiNativ Profiling analysis relative to control", "assay_type": "cell-based"}, "[11]": {"target": "Wee1-like protein kinase (Homo sapiens) (UniProt P30291)", "sequence (P30291 whole entry, looked up)": "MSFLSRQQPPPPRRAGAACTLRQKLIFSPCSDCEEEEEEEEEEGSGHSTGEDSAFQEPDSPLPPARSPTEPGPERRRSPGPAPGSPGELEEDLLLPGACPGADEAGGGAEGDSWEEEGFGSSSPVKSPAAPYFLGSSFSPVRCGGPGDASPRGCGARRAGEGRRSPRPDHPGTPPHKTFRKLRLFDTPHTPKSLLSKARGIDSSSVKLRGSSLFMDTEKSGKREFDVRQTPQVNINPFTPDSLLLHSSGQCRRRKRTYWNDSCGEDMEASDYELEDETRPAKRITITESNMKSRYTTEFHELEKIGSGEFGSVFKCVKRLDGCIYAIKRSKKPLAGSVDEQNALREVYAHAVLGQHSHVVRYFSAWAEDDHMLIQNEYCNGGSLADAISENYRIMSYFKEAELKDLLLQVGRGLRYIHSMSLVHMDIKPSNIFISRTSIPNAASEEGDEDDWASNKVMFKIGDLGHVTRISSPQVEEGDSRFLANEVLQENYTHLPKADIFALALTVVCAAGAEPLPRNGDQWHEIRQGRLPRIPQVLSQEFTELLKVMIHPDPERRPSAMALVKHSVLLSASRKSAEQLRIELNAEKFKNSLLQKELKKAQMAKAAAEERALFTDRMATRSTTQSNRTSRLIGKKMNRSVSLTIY", "experiment": "Inhibition of Wee1 Lys2 labeling site in human A-375 cells at 5 uM by KiNativ Profiling analysis relative to control", "assay_type": "cell-based"}, "[12]": {"tested_on": "Mast/stem cell growth factor receptor Kit (Homo sapiens), P10721 [D816V]", "sequence (P10721 whole entry D816V)": "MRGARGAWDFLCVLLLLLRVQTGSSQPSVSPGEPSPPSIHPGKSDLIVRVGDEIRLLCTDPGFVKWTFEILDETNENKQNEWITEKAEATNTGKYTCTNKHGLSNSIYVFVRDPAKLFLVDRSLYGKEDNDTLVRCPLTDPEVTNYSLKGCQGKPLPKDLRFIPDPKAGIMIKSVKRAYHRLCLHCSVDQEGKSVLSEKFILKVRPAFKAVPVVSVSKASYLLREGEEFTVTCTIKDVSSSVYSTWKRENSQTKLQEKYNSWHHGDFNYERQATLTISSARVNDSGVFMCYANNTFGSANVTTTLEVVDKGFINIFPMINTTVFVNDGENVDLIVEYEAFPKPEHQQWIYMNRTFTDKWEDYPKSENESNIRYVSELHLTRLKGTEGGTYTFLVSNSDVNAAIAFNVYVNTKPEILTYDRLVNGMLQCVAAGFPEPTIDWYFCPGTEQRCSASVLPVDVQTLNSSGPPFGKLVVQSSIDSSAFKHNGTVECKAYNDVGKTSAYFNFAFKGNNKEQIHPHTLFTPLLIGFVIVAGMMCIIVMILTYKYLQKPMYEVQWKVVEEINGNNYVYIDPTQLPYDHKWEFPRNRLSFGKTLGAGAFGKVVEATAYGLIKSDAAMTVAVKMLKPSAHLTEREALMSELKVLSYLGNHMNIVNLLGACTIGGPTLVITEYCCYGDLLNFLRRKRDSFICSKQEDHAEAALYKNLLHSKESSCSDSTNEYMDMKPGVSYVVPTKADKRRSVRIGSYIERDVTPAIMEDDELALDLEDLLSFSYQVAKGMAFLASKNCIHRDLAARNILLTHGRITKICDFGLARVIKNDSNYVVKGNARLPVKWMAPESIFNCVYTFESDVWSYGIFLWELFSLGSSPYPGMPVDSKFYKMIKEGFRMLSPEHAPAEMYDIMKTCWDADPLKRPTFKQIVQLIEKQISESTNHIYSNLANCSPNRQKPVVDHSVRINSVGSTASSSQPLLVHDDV", "experiment": "Inhibition of KIT D816V mutant (unknown origin) at 1 uM by Ambit Kinomescan binding assay relative to control; values are per cent of control"}}, "data": [{"smiles": "CNc1cc(Oc2cc(C(=O)Nc3cc(N4CCN(C)CC4)cc(C(F)(F)F)c3)ccc2C)ncn1", "values": [{"measurement": "inhibition", "setting": "[1]", "value": 39.1, "unit": "%"}, {"measurement": "inhibition", "setting": "[2]", "value": -4, "unit": "%"}, {"measurement": "inhibition", "setting": "[3]", "value": 1, "unit": "%"}]}, {"smiles": "CCN1CCN(Cc2ccc(NC(=O)c3ccc(C)c(Oc4ccnc5[nH]ccc45)c3)cc2C(F)(F)F)CC1", "values": [{"measurement": "inhibition", "setting": "[4]", "value": -0.3, "unit": "%"}, {"measurement": "inhibition", "setting": "[5]", "value": 11.7, "unit": "%"}, {"measurement": "inhibition", "setting": "[6]", "value": 5.8, "unit": "%"}, {"measurement": "inhibition", "setting": "[7]", "value": 14, "unit": "%"}, {"measurement": "inhibition", "setting": "[8]", "value": -1.5, "unit": "%"}]}, {"smiles": "CCN1CCN(Cc2ccc(NC(=O)c3ccc(C)c(/C=C/c4cnc5[nH]ccc5c4OC)c3)cc2C(F)(F)F)CC1", "values": [{"measurement": "inhibition", "setting": "[9]", "value": 78, "unit": "%"}, {"measurement": "inhibition", "setting": "[10]", "value": 38.9, "unit": "%"}, {"measurement": "inhibition", "setting": "[11]", "value": -0.1, "unit": "%"}, {"measurement": "residual activity", "setting": "[12]", "value": 8.8, "unit": "%"}]}]}
